Reference: ChEMBL document CHEMBL6109048, “Innovative design and potential applications of covalent strategy in drug discovery” (Eur J Med Chem, 2025)

Tests used:
[1] = molecular target: Tyrosine-protein kinase ABL1 (Homo sapiens, UniProt P00519); test: Inhibition of 6His/SUMO- tagged human ABL1 (229 to 500 residues) extracted from Escherichia coli BL21 (DE3)
[2] = molecular target: T1, Tyrosine-protein kinase JAK3 (Homo sapiens, UniProt P52333); test: Inhibition of JAK3 (unknown origin)
T1 sequence (P52333 whole entry): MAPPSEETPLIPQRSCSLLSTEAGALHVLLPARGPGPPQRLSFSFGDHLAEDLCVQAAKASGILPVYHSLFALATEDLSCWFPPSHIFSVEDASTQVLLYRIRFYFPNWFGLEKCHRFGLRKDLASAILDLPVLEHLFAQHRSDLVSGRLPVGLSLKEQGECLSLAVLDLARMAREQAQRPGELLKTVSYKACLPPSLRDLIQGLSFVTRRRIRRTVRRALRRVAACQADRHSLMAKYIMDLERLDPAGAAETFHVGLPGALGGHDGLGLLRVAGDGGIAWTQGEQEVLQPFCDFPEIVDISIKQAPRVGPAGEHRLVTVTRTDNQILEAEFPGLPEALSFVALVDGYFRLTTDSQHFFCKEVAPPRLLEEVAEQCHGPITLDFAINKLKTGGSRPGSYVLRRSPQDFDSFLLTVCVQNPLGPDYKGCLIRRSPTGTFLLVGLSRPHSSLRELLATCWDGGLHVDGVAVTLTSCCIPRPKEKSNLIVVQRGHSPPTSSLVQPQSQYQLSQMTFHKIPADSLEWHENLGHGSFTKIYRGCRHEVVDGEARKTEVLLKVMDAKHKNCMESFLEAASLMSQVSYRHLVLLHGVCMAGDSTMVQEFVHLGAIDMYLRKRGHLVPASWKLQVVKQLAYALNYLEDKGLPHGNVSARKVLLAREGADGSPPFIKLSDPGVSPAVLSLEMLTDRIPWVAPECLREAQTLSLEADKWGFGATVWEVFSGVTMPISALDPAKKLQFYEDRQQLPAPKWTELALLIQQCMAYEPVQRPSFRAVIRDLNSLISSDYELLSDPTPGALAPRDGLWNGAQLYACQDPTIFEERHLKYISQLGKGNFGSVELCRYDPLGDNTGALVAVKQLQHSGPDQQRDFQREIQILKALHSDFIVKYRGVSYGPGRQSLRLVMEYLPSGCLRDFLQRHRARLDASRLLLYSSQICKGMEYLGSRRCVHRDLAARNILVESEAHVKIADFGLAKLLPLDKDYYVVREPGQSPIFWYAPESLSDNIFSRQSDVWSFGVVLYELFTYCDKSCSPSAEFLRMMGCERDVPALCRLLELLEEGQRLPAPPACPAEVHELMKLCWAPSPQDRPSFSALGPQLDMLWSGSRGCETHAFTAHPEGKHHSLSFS

[3] = molecular target: T2, Cathepsin G (Homo sapiens, UniProt P08311); test: Inhibition of human Cathepsin G
T2 sequence (P08311 whole entry): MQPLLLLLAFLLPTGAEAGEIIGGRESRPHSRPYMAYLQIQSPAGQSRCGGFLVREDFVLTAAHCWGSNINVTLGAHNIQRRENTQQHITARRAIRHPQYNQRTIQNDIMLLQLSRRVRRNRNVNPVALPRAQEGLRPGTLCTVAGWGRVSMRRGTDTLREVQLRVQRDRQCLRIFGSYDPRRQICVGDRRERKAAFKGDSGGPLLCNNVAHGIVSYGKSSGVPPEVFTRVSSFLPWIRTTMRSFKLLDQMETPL

[4] = molecular target: T3, Neutrophil elastase (Homo sapiens, UniProt P08246); test: Inhibition of human neutrophil elastase
T3 sequence (P08246 whole entry): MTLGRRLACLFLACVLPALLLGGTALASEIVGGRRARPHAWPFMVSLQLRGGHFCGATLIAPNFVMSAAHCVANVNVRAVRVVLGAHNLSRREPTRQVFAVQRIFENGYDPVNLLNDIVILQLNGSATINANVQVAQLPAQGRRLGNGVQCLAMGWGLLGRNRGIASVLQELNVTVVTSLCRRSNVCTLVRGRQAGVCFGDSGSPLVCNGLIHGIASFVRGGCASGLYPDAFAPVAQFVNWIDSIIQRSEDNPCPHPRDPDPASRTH

[5] = molecular target: SRSF protein kinase 1 (Homo sapiens, UniProt Q96SB4); test: Inhibition of SRPK1 (unknown origin)
[6] = molecular target: Epidermal growth factor receptor (Homo sapiens, UniProt P00533); test: Inhibition of EGFR (unknown origin) by ADP-Glo kinase assay
[7] = molecular target: Mast/stem cell growth factor receptor Kit (Homo sapiens, UniProt P10721); test: Inhibition of c-KIT (unknown origin)
[8] = molecular target: Cyclin-dependent kinase 3 (Homo sapiens, UniProt Q00526); test: Inhibition of recombinant CDK3 (unknown origin)
Sequence of Cyclin-dependent kinase 3 (Q00526 whole entry): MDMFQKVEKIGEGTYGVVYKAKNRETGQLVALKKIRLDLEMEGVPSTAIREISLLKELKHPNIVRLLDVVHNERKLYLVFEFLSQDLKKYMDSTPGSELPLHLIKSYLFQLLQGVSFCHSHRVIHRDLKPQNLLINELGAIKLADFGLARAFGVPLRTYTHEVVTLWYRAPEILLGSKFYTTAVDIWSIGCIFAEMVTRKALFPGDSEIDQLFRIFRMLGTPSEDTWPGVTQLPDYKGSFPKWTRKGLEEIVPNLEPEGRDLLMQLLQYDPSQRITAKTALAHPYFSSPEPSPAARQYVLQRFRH

Sequence of Epidermal growth factor receptor (P00533 whole entry): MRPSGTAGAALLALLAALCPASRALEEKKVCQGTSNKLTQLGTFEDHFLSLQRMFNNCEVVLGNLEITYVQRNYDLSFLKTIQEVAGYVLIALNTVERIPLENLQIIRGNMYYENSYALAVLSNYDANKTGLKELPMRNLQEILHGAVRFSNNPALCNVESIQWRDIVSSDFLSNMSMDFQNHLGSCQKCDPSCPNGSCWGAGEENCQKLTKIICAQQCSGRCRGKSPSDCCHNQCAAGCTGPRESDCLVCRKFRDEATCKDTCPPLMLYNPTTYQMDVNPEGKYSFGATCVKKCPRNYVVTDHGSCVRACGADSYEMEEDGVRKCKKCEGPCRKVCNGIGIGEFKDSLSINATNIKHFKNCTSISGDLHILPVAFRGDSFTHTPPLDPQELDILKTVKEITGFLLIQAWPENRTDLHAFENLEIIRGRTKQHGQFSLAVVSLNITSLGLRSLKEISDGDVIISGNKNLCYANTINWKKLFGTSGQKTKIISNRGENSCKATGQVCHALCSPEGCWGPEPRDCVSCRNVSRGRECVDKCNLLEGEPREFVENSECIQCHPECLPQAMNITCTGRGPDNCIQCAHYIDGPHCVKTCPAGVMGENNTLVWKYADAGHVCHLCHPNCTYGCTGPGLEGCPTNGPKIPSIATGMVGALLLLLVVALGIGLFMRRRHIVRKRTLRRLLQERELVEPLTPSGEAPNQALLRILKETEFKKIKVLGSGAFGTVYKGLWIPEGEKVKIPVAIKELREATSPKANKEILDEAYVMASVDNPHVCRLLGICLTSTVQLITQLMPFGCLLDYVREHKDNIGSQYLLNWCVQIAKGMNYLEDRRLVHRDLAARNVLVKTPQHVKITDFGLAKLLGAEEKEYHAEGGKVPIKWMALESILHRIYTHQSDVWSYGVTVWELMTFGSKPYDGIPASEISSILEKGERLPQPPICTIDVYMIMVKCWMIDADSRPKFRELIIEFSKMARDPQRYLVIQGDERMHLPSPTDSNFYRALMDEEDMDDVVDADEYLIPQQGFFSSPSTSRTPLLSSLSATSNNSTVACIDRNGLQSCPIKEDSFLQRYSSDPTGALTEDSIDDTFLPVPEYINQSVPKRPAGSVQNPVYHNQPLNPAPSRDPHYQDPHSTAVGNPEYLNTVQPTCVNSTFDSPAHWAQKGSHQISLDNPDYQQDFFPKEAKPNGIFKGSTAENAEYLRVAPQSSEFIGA
Sequence of Tyrosine-protein kinase ABL1 (P00519 whole entry, the tested form may be a part): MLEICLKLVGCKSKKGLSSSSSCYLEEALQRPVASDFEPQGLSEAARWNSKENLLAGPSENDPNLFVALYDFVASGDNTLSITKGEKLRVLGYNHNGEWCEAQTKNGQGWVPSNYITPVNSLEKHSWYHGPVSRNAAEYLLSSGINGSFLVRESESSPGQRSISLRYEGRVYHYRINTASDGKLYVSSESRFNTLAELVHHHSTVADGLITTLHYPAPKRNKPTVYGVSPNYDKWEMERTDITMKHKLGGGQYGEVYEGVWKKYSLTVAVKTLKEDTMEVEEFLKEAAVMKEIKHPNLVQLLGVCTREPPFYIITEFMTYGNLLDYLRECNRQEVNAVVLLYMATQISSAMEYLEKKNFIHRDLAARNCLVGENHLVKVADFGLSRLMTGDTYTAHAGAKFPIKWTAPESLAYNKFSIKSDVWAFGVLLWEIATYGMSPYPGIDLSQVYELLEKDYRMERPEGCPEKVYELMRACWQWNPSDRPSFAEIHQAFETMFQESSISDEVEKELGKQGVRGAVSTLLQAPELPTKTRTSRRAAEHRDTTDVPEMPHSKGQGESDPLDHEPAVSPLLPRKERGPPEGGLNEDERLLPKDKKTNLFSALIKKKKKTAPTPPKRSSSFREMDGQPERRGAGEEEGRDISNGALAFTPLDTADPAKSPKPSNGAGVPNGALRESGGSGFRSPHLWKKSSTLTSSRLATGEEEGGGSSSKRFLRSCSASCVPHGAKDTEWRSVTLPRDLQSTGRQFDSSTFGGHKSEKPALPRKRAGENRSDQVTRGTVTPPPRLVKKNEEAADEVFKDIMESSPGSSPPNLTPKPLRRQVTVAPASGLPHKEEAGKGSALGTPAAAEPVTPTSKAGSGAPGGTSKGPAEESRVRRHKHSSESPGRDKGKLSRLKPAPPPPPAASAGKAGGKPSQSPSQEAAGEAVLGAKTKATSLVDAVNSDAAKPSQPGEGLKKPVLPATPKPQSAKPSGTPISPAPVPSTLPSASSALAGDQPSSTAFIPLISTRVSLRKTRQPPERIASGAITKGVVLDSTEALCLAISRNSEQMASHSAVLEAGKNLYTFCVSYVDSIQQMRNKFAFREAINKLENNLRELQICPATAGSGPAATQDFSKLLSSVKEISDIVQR
Sequence of Mast/stem cell growth factor receptor Kit (P10721 whole entry): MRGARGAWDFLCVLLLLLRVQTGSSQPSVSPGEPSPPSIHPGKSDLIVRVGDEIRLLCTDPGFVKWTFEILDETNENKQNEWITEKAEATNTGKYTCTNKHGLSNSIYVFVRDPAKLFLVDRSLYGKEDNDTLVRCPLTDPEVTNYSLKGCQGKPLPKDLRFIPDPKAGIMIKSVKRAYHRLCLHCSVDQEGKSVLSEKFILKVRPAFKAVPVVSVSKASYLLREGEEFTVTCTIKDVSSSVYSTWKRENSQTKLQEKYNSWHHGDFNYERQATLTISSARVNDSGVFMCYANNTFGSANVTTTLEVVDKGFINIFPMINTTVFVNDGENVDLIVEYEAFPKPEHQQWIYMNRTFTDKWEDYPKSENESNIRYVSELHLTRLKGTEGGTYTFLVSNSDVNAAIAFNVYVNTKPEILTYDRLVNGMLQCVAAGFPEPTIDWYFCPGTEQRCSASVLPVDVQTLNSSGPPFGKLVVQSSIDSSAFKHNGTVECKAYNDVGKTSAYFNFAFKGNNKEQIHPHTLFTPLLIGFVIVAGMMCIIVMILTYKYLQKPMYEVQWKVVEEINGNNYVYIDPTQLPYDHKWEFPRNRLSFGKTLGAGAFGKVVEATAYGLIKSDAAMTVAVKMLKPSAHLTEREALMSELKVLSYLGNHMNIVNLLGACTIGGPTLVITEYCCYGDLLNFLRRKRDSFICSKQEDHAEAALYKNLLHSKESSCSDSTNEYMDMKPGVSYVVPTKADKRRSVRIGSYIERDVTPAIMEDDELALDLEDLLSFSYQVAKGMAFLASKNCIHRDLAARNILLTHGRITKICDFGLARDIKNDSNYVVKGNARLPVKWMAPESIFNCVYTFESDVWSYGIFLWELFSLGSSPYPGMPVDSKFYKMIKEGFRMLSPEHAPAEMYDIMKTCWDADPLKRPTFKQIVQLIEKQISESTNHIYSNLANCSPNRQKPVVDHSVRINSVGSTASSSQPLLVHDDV
Sequence of SRSF protein kinase 1 (Q96SB4 whole entry): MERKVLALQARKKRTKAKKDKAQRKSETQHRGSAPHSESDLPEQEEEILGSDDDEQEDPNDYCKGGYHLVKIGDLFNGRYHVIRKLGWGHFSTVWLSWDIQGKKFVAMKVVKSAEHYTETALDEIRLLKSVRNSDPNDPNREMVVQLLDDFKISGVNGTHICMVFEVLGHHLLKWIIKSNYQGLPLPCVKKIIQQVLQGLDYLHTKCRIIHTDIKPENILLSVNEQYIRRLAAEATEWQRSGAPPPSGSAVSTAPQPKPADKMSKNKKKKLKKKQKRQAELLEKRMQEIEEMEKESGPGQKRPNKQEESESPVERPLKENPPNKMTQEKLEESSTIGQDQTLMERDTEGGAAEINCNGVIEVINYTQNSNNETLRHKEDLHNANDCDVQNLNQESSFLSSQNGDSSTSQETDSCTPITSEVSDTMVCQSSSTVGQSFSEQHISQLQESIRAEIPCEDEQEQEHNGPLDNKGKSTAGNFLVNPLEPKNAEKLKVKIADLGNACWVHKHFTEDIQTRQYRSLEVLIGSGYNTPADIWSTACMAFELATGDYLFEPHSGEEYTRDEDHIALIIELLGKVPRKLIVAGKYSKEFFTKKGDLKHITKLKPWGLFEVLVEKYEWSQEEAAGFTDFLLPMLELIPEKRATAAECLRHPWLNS

C#Cc1cc(OC)c(-c2ccc3nc(NC(=O)NCCO)sc3c2)cc1C=O
IC50 [1]: 2.4 nM

CC#CC1Nc2cc(Nc3nccc(C4CN(C)c5ccccc54)n3)ccc2C(C)(C)O1 (centres undefined)
IC50 [2]: 60 nM

O=S(=O)(F)c1ccccc1S(=O)(=O)F
IC50 [3]: 190 nM | IC50 [4]: 3300 nM

CCc1cc2c(cc1-c1cc[nH]n1)C(C)(C)C1Cc3cc(C#N)ccc3C1C2=O (centres undefined)
IC50 [5]: 1.15 nM

C#Cc1cc(Nc2ncnc3cc(OCCOC)c(OCCOC)cc23)ccc1C=O
IC50 [6]: 48.2 nM

CC#CC1=Nc2cc(NC(=O)Cc3ncc(Oc4ccnc5cc(OC)ccc45)cc3OC)ccc2C(C)(C)O1
IC50 [7]: 2080 nM

O=S(=O)(F)Oc1ccccc1S(=O)(=O)F
IC50 [3]: > 200 nM

CN(C)C/C=C/C(=O)Nc1ccc(C(=O)N2CCCC(Nc3ncc(Cl)c(-c4c[nH]c5ccccc45)n3)C2)cc1 (centres undefined)
IC50 [8]: 69 nM
